Reference: US10105357B2, “Indication of antibiotic drugs for preparation of cancer inhibition pharmaceutical composition” (LAUNX BIOMEDICAL CO., LTD., priority 2014, dated 2018)
Like-named read-outs stand apart in the source and are kept apart here.

What was measured:
[1] = system: MCF7 (Mammary Gland, Adenocarcinoma); assay: Cell viability analysis, breast cancer MCF7; format: cell-based, human; conditions: Homo sapiens
[2] = system: HepG2 (Hepatocellular Carcinoma); assay: Cell viability analysis, hepatic cancer HepG2; format: cell-based, human; conditions: Homo sapiens
[3] = system: PC3 (p53−) (Prostate Adenocarcinoma); assay: Cell viability analysis, prostate cancer PC3; format: cell-based, human; conditions: Homo sapiens
[4] = system: A375 (Amelanotic Melanoma); assay: Cell viability analysis, skin cancer A375; format: cell-based, human; conditions: Homo sapiens
[5] = system: LoVo (Colorectal Adenocarcinoma); assay: Cell viability analysis, colon cancer LoVo; format: cell-based, human; conditions: Homo sapiens, LoVo
[6] = system: TSGH-8301 (Urinary Bladder Carcinoma); assay: Cell viability analysis, bladder cancer TSGH-8301; format: cell-based, human; conditions: Homo sapiens
[7] = system: HCT116 (p53+) (Colorectal Carcinoma); assay: cells; conditions: Homo sapiens, HCT-116, 72 h, read-out: cell viability (survival rate), HCT116
[8] = system: A549 (Lung Adenocarcinoma); assay: Cell viability analysis, lung cancer A549; format: cell-based, human; conditions: Homo sapiens
[9] = system: HL-60 (Acute Promyelocytic Leukemia); assay: Cell viability analysis, leukemia HL-60; format: cell-based, human; conditions: Homo sapiens
[10] = system: AGS (Gastric Adenocarcinoma); assay: Cell viability analysis, gastric cancer AGS; format: cell-based, human; conditions: Homo sapiens
[11] = system: HeLa (Cervix Adenocarcinoma); assay: Cell viability analysis, cervical cancer HeLa; format: cell-based, human; conditions: Homo sapiens, HeLa
[12] = system: MKN-45 (Gastric Adenocarcinoma); assay: Cell viability analysis, gastric cancer MKN-45; format: cell-based, human; conditions: Homo sapiens
[13] = system: HI650 (Lung Adenocarcinoma); assay: Cell viability analysis, lung cancer HI650; format: cell-based, human; conditions: Homo sapiens
[14] = MCF7, 72 h, drug 10 μM, 72 hours, WST-1, OD450 nm, read-out: cell viability (survival rate), MCF7
[15] = HepG2, 72 h, drug 10 μM, 72 hours, WST-1, OD450 nm, read-out: cell viability (survival rate), HepG2
[16] = 72 h, drug 10 μM, 72 hours, WST-1, OD450 nm, read-out: cell viability (survival rate), PC3
[17] = A-375, 72 h, drug 10 μM, 72 hours, WST-1, OD450 nm, read-out: cell viability (survival rate), A375
[18] = 72 h, read-out: cell viability (survival rate), LoVo, drug 10 μM, 72 hours, WST-1, OD450 nm
[19] = 72 h, drug 10 μM, 72 hours, WST-1, OD450 nm, read-out: cell viability (survival rate), TSGH
[20] = A549, 72 h, drug 10 μM, 72 hours, WST-1, OD450 nm, read-out: cell viability (survival rate), A549
[21] = HL-60, 72 h, drug 10 μM, 72 hours, WST-1, OD450 nm, read-out: cell viability (survival rate), HL-60
[22] = 72 h, drug 10 μM, 72 hours, WST-1, OD450 nm, read-out: cell viability (survival rate), AGS
[23] = 72 h, drug 10 μM, 72 hours, WST-1, OD450 nm, read-out: cell viability (survival rate), HeLa
[24] = MKN-45, 72 h, drug 10 μM, 72 hours, WST-1, OD450 nm, read-out: cell viability (survival rate), MKN-45
[25] = NCI-H1650, 72 h, drug 10 μM, 72 hours, WST-1, OD450 nm, read-out: cell viability (survival rate), H1650
[26] = MCF7, drug 10 μM, 72 hours, WST-1, OD450 nm, read-out: cell viability (survival rate), MCF7
[27] = HepG2, drug 10 μM, 72 hours, WST-1, OD450 nm, read-out: cell viability (survival rate), HepG2
[28] = drug 10 μM, 72 hours, WST-1, OD450 nm, read-out: cell viability (survival rate), PC3
[29] = A-375, drug 10 μM, 72 hours, WST-1, OD450 nm, read-out: cell viability (survival rate), A375
[30] = drug 10 μM, 72 hours, WST-1, OD450 nm, read-out: cell viability (survival rate), LoVo
[31] = drug 10 μM, 72 hours, WST-1, OD450 nm, read-out: cell viability (survival rate), TSGH
[32] = A549, drug 10 μM, 72 hours, WST-1, OD450 nm, read-out: cell viability (survival rate), A549
[33] = HL-60, drug 10 μM, 72 hours, WST-1, OD450 nm, read-out: cell viability (survival rate), HL-60
[34] = drug 10 μM, 72 hours, WST-1, OD450 nm, read-out: cell viability (survival rate), AGS
[35] = drug 10 μM, 72 hours, WST-1, OD450 nm, read-out: cell viability (survival rate), HeLa
[36] = MKN-45, drug 10 μM, 72 hours, WST-1, OD450 nm, read-out: cell viability (survival rate), MKN-45
[37] = NCI-H1650, drug 10 μM, 72 hours, WST-1, OD450 nm, read-out: cell viability (survival rate), H1650
[38] = MCF7, 72 h, read-out: cell viability (survival rate), MCF7, drug 10 μM, 72 hours, WST-1, OD450 nm
[39] = HepG2, 72 h, read-out: cell viability (survival rate), HepG2, drug 10 μM, 72 hours, WST-1, OD450 nm
[40] = 72 h, read-out: cell viability (survival rate), PC3, drug 10 μM, 72 hours, WST-1, OD450 nm
[41] = A-375, 72 h, read-out: cell viability (survival rate), A375, drug 10 μM, 72 hours, WST-1, OD450 nm
[42] = 72 h, read-out: cell viability (survival rate), TSGH, drug 10 μM, 72 hours, WST-1, OD450 nm
[43] = A549, 72 h, read-out: cell viability (survival rate), A549, drug 10 μM, 72 hours, WST-1, OD450 nm
[44] = HL-60, 72 h, read-out: cell viability (survival rate), HL-60, drug 10 μM, 72 hours, WST-1, OD450 nm
[45] = 72 h, read-out: cell viability (survival rate), AGS, drug 10 μM, 72 hours, WST-1, OD450 nm
[46] = 72 h, read-out: cell viability (survival rate), HeLa, drug 10 μM, 72 hours, WST-1, OD450 nm
[47] = MKN-45, 72 h, read-out: cell viability (survival rate), MKN-45, drug 10 μM, 72 hours, WST-1, OD450 nm
[48] = NCI-H1650, 72 h, read-out: cell viability (survival rate), H1650, drug 10 μM, 72 hours, WST-1, OD450 nm

SMILES	viability at 10 µM [1, 14]	viability at 10 µM [2, 15]	viability at 10 µM [3, 16]	viability at 10 µM [4, 17]	viability at 10 µM [5, 18]	viability at 10 µM [6, 19]	viability at 10 µM [7]	viability at 10 µM [8, 20]	viability at 10 µM [9, 21]	viability at 10 µM [10, 22]	viability at 10 µM [11, 23]	viability at 10 µM [12, 24]	viability at 10 µM [13, 25]	viability at 10 µM [1, 38]	viability at 10 µM [2, 39]	viability at 10 µM [3, 40]	viability at 10 µM [4, 41]	viability at 10 µM [6, 42]	viability at 10 µM [8, 43]	viability at 10 µM [9, 44]	also measured
CC(=O)Nc1ncc([N+](=O)[O-])s1 [Nithiamide]	65.5%	94.8%	74.5%	96.7%	89.8%	122%	86.9%	39.3%	102%	102%	83%	76.7%	67.1%								
CCc1oc2ccccc2c1C(=O)c1cc(Br)c(O)c(Br)c1 [Benzbromarone]	52.8%	103%	80.9%	99.2%	105%	99.9%	128%	51.5%	85.5%	80.1%	104%	86.2%	75.3%								
O=C(O)c1ccccc1 [Benzoic acid]							41.9%														viability at 10 µM [1, 26]: 31.4%; viability at 10 µM [2, 27]: 79.1%; viability at 10 µM [3, 28]: 36.8%; viability at 10 µM [4, 29]: 37%; viability at 10 µM [5, 30]: 60.5%; viability at 10 µM [6, 31]: 39.5%; viability at 10 µM [8, 32]: 36.7%; viability at 10 µM [9, 33]: 111%; viability at 10 µM [10, 34]: 53.1%; viability at 10 µM [11, 35]: 59.6%; viability at 10 µM [12, 36]: 43.4%; viability at 10 µM [13, 37]: 57.2%
CN(C)[C@@H]1C(O)=C(C(=O)NCN2CCCC2)C(=O)[C@@]2(O)C(O)=C3C(=O)c4c(O)cccc4[C@@](C)(O)[C@H]3C[C@@H]12 [Rolitetracycline]					86.1%		67.7%							88.8%	71.2%	105%	82.5%	54.3%	112%	102%	viability at 10 µM [10, 45]: 61.1%; viability at 10 µM [11, 46]: 53.9%; viability at 10 µM [12, 47]: 95.7%; viability at 10 µM [13, 48]: 113%
OC[C@H]1O[C@H](O[C@]2(CCl)O[C@H](CCl)[C@@H](O)[C@@H]2O)[C@H](O)[C@@H](O)[C@H]1Cl [Sucralose]	71.2%	95.3%	78.8%	83.3%	73.8%	94.3%	54.8%	74.3%	88.5%	66.7%	77.9%	94.1%	72%								
Nc1c2ccccc2nc2ccccc12 [9-Aminoacridine]					58.5%		70.5%							34.1%	63.5%	38.7%	36.4%	34.6%	25.8%	28.8%	viability at 10 µM [10, 45]: 42.8%; viability at 10 µM [11, 46]: 43.6%; viability at 10 µM [12, 47]: 63.1%; viability at 10 µM [13, 48]: 56.9%
COC(=O)N/N=C/c1c[n+]([O-])c2ccccc2[n+]1[O-] [Carbadox]	34.6%	88.7%	52.5%	52.4%	54.4%	67.9%	72.8%	24.8%	87%	51.9%	60%	104%	56.9%								
NC(CO)(CO)CO [Trometamol]					68%		90.4%							98.8%	96.7%	97%	126%	102%	79.5%	91.3%	viability at 10 µM [10, 45]: 78.1%; viability at 10 µM [11, 46]: 90.9%; viability at 10 µM [12, 47]: 88.3%; viability at 10 µM [13, 48]: 95.4%
COC(=O)C1=CO[C@@H](O[C@@H]2O[C@H](CO)[C@@H](O)[C@H](O)[C@H]2O)[C@@H]2C(CO)=CC[C@H]12 [Geniposide]							73.9%														viability at 10 µM [1, 26]: 73.8%; viability at 10 µM [2, 27]: 88.6%; viability at 10 µM [3, 28]: 65.5%; viability at 10 µM [4, 29]: 73.4%; viability at 10 µM [5, 30]: 74.1%; viability at 10 µM [6, 31]: 53.1%; viability at 10 µM [8, 32]: 63.7%; viability at 10 µM [9, 33]: 120%; viability at 10 µM [10, 34]: 54.2%; viability at 10 µM [11, 35]: 81%; viability at 10 µM [12, 36]: 45.6%; viability at 10 µM [13, 37]: 71.2%
CCCCCCCCCCCCCCCC[n+]1ccccc1 [Cetylpyridinium Chloride]							33.6%														viability at 10 µM ([1]; MCF7, 72 h, read-out: cell viability (survival rate), MCF7): 40.9%; viability at 10 µM ([2]; HepG2, 72 h, read-out: cell viability (survival rate), HepG2): 60.9%; viability at 10 µM ([3]; 72 h, read-out: cell viability (survival rate), PC3): 37.1%; viability at 10 µM ([4]; A-375, 72 h, read-out: cell viability (survival rate), A375): 35.6%; viability at 10 µM ([5]; 72 h, read-out: cell viability (survival rate), LoVo): 50.7%; viability at 10 µM ([6]; 72 h, read-out: cell viability (survival rate), TSGH): 37.2%; viability at 10 µM ([8]; A549, 72 h, read-out: cell viability (survival rate), A549): 29.2%; viability at 10 µM ([9]; HL-60, 72 h, read-out: cell viability (survival rate), HL-60): 30.8%; viability at 10 µM ([10]; 72 h, read-out: cell viability (survival rate), AGS): 33.4%; viability at 10 µM ([11]; 72 h, read-out: cell viability (survival rate), HeLa): 37.1%; viability at 10 µM ([12]; MKN-45, 72 h, read-out: cell viability (survival rate), MKN-45): 47.4%; viability at 10 µM ([13]; NCI-H1650, 72 h, read-out: cell viability (survival rate), H1650): 48.7%
